The target of one series is T1, GST-Grp1 (Homo sapiens, UniProt O43739).
T1 sequence (O43739 1-400): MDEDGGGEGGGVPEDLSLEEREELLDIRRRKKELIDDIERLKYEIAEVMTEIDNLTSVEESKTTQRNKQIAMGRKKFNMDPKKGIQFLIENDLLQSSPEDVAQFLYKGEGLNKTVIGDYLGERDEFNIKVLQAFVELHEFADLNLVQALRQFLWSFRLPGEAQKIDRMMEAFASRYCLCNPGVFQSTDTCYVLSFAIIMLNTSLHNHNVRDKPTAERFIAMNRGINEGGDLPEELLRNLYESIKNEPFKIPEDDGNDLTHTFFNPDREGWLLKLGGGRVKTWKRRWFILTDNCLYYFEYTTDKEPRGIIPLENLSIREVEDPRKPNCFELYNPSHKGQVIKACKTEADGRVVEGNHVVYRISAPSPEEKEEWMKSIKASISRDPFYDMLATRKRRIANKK
The series can be described thus: Competition fluorogenic assay with GST-Grp1/GS-QSY 7 complex. Format: binding. Particulars: probe 10 nM, GST-Grp1 0.5 μM, GS-QSY 7 2.5 μM, increasing competitor. How it is done:
The fluorogenic assays using a glutathione quencher conjugate (e.g. GS-QSY 7) were set up in a black 384-well plate. A combination of the assay components described in detail below, including GST-Grp1, BODIPY®-FL-PI(3,4,5)P3, GS-QSY7, and phosphoinositide competitors, were incubated in the dark for 1 hour. The total reaction volume was either 25 or 50 μl in PBS (pH 7.4). The plate was then transferred to an Alpha Fusion plate reader and read with a 485/520 nm filter.
This fluorogenic assay was also specific.

The next series deals with GST-TAPP1 (Homo sapiens, UniProt Q9HB21). The series is described as follows: Competitive FP assay, displacement of BODIPY-TMR-PI(3,4)P2 tracer from GST-TAPP1. Format: binding. On the procedure: (§1) In order to use these reagents in a competitive FP assay, unlabeled phosphoinositide products of an enzymatic reaction must be able to successfully compete with the labeled tracer for interaction with the binding proteins. In addition, the level of cross-reactivity of binding proteins with the phosphoinositides used as enzyme substrates should be minimal. To examine the suitability of these phosphoinositide binding proteins for this application, competition assays were performed using optimal amounts of lipid binding proteins and fluorescent tracers, mixed with increasing amounts of diC8-phosphoinositide competitors.
Similar competition assays were performed to examine the selectivity and sensitivity of PI(3,4)P2 detection by GST-TAPP1 (FIG. 10). In these assays, the concentrations of GST-TAPP1 and the fluorescently labeled phosphoinositide were held constant as the concentration of unlabeled lipid competitor was increased. […] In implementing these assays, the initial amount of PI(3,4,5)P3 substrate should be kept low enough to minimize competition.

A further series addresses T2, GST-GRP1-PH (Homo sapiens, UniProt O43739).
T2 construct: The PH domain of GRP1 (general receptor for phosphoinositides) was used as a detector for PI(3,4,5)P3
T2 sequence (O43739 264-381 limits assumed): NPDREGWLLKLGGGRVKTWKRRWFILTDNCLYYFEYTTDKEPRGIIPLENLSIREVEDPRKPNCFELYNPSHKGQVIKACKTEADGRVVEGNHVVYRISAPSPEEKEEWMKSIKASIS
The series can be described thus: Competitive FP assay, displacement of fluorescent tracer from GST-GRP1-PH. Particulars: displacement of BODIPY®-TMR-I(1,3,4,5)P4 tracer. Format: binding. On the procedure: as §1
The sensitivity of this approach for detecting conversion of PI(4,5)P2 to PI(3,4,5)P3 was evaluated using GST-GRP1-PH protein and FAM and BODIPY®-TMR labeled tracers. Competition assays in which both diC8-PI(3,4,5)P3 and diC8-PI(4,5)P2 were added at increasing concentrations were performed.

Another series addresses T3, SMQ-Grp1 (Homo sapiens, UniProt O43739).
T3 construct: small molecular quencher (Dabcyl, QSY 7 or QSY 9); made in house
T3 sequence (O43739 1-400): T1 sequence (O43739 1-400)
The series can be described thus: Competitive dequenching fluorogenic assay with SMQ-Grp1. Format: binding. Conditions: for change of fluorescence signal (competition): increasing amounts of competitor, compared with diC8 PI(3,4,5)P3. How it is done: The fluorogenic assays were set up in a black 384-well plate. The combination of 100 nM, 10 nM and 1 nM of SMQ-Grp1 conjugate was incubated with 100 nM, 50 nM and 25 nM BODIPY®-FL-labeled PI(3,4,5)P3. The total assay volume was […] in a PBS buffer at a pH of 7.5. The assay mixture was incubated in the dark for one hour at 25° C. The plate was then transferred to an Alpha Fusion plate reader and read with a 485/520 nm filter. […] For example, if BODIPY®-FL-PI(3,4,5)P3 is fixed at 25 nM, increasing the amount of Dabcyl-Grp1 conjugate (from 1 nM to 100 nM) caused decreasing amounts of fluorescence (FIG. 24). Similar fluorescence quenching profiles were shown for QSY 7-Grp1 and QSY 9-Grp1.
The quenching effects of BODIPY®-FL-PI(3,4,5)P3 by SMQ-Grp1 were specific. diC8 PI(3,4,5)P3 as a competitor antagonized the fluorescence quenching effect of BODIPY®-FL-PI(3,4,5)P3 by SMQ-Grp1 in a dose-response manner. diC8 PI(3,4,5)P3 was used at varying concentrations to compete with BODIPY®-FL-PI(3,4,5)P3 for binding to the SMQ-Grp1 conjugate. […] In each bar graph in FIG. 25, from the right to the left, the bars show the fluorescence reading of PBS as the background, the diC8 PI(3,4,5)P3 only, the SMQ-Grp1 conjugate only, BODIPY®-FL-PI(3,4,5)P3 only, Grp1-SMQ plus BODIPY®-FL-PI(3,4,5)P3, Grp1-SMQ plus BODIPY®-FL-PI(3,4,5)P3 with 10 pmol of diC8 PI(3,4,5)P3 as the competitor, Grp1-SMQ plus BODIPY®-FL-PI(3,4,5)P3 with 100 pmol of diC8 PI(3,4,5)P3 as the competitor, Grp1-SMQ plus BODIPY®-FL-PI(3,4,5)P3 with 1000 pmol of diC8 PI(3,4,5)P3 as the competitor, and Grp1-SMQ plus BODIPY®-FL-PI(3,4,5)P3 with 10000 pmol of diC8 PI(3,4,5)P3 as competitor. […]
Fluorogenic assays were also used to compare competition of diC8 PI(3,4,5)P3 to PI(4,5)P2 and PI(3)P. With increasing amounts of PI(3,4,5)P3 the signal begins to increase, indicating competition, whereas as PI(4,5)P2 and PI(3)P show little change, indicating less competition. […] The production (or presence) of PI(3,4,5)P3 in this assay system corresponds to the elevation of the fluorescence signal.

The subject of series [1] is PI(4,5)P2-specific LRP derived from PLCδ. The series can be described thus: AlphaScreen binding and competition with PI(4,5)P2-specific LRP. Conditions: biotinylated PI(4,5)P2 and PLCδ kept constant. On the procedure: The present invention provides ALPHAScreen™ assays to detect specific binding and competition of phosphoinositide diphosphates using antibodies or LRPs. This approach can be used in competitive assays for the detection of PI(3,4)P2 and PI(4,5)P2 produced by lipid phosphatase or kinase activity. […] Increasing amounts of unlabeled PI(4,5)P2 or PI(3,4,5)P3 were added while levels of PLCδ and PI(4,5)P2 were kept constant. PI(4,5)P2 competition is approximately 90-fold greater than PI(3,4,5)P3 competition, indicating a high degree of specificity for recognition of PI(4,5)P2.
(In general: Alpha assays give light when donor and acceptor beads are brought close together.)

A short description of series [2]: Fluorogenic assay, quenching of BODIPY-FL-PI(3,4,5)P3 by SMQ-Grp1 conjugates. The class given is binding. The text has this: The chemical modification of LRPs, e.g. Grp1, a PI(3,4,5)P3 binder, with small molecular quenchers (SMQ) has been thoroughly studied in this invention. Three SMQs, Dabcyl-SE (4-((4-(dimethylamino)phenyl)azo)benzoic acid, succinimidyl ester), QSY 7-SE (9-[2-[[4-[[(2,5-dioxo-1-pyrrolidinyl)oxy]carbonyl]-1-piperidinyl]sulfonyl]phenyl]-3,6-bis(methylphenylamino)-, chloride) and QSY 9-SE (QSY® 9 carboxylic acid, succinimidyl ester, C43H39ClN4O13S3), with diverse structures, spectral properties, hydrophobicity and solubility properties, were coupled to Grp1. Specifically, SMQ-modified Grp1 still retains its binding activity and quenches the fluorescence of BODIPY®-FL labeled PI(3,4,5)P3. With a fixed amount of BODIPY®-FL-PI(3,4,5)P3 in solution, increasing the amount of SMQ-Grp1 caused decreasing fluorescence of the PI(3,4,5)P3 fluorescent probes. At a ratio of 2:1 (QSY 7-Grp1:BODIPY®-FL-PI(3,4,5)P3), QSY 7-Grp1 quenched up to 70% of the fluorescence intensity of BODIPY®-FL PI(3,4,5)P3.
The fluorogenic assays were set up in a black 384-well plate. […] The plate was then transferred to an Alpha Fusion plate reader and read with a 485/520 nm filter. […] For example, if BODIPY®-FL-PI(3,4,5)P3 is fixed at 25 nM, increasing the amount of Dabcyl-Grp1 conjugate (from 1 nM to 100 nM) caused decreasing amounts of fluorescence (FIG. 24). […]

Here are results for eight molecules from US20050009124A1, “Assays for detection of phosphoinositide kinase and phosphatase activity” (Echelon Biosciences Incorporated, priority 2001, published 2005).

Like-named read-outs stand apart in the source and are kept apart here.

Chain of GST-TAPP1 (Q9HB21 whole entry): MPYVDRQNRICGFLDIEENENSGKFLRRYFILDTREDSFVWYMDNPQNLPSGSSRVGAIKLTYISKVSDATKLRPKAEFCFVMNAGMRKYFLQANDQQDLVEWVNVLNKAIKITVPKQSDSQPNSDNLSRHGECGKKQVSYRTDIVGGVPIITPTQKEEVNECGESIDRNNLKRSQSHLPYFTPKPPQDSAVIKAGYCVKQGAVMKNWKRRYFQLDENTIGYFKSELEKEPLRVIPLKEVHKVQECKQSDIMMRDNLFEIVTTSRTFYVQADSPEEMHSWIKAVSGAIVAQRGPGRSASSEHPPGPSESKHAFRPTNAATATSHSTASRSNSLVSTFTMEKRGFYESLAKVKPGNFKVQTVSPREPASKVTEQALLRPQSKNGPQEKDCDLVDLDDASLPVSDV

Regarding `CCCCCCCCCCCCCCCC(=O)OC[C@H](COP(=O)(O)OC1[C@H](O)[C@H](OP(=O)(O)O)C(OP(=O)(O)O)[C@H](OP(=O)(O)O)[C@H]1O)OC(=O)CCCCCCCCCCCCCCC` (some centres unmarked) [DiC16 PI(3,4,5)P3], the “effect on fluorescence of BODIPY®-FL PI(3,4,5)P3 (competition)” value on GST-Grp1 is recorded as “restored the fluorescence”. A word on the IC50: it is the concentration that inhibits the measured activity by half. `CCCCCCCC(=O)OC[C@H](COP(=O)(O)O[C@H]1[C@H](O)[C@@H](O)[C@H](OP(=O)(O)O)[C@@H](OP(=O)(O)O)[C@H]1O)OC(=O)CCCCCCC` [diC8-PI(3,4)P2]: the concentration for half-maximal inhibition (IC50) on GST-TAPP1 (read-out: IC50) was 165 nM. Regarding `CCCCCCCC(=O)OC[C@H](COP(=O)(O)OC1[C@H](O)[C@H](OP(=O)(O)O)C(OP(=O)(O)O)[C@H](OP(=O)(O)O)[C@H]1O)OC(=O)CCCCCCC` (some centres unmarked) [diC8-PI(3,4,5)P3], the IC50 at GST-GRP1-PH is 218 nM; on GST-TAPP1 (predicted, read-out: predicted IC50) it was 1510 nM. Also, the “fluorescence restored, of the original” value at SMQ-Grp1 (10000 pmol competitor, Dabcyl-Grp1 100 nM, probe 50 nM) is recorded as “up to 70%”.

`CCCCCCCCCCCCCCCC(=O)OC[C@H](COP(=O)(O)O[C@@H]1[C@H](O)[C@H](O)[C@@H](OP(=O)(O)O)[C@H](OP(=O)(O)O)[C@H]1O)OC(=O)CCCCCCCCCCCCCCC` [diC16 PI(4,5)P2]: the “effect on fluorescence of BODIPY®-FL PI(3,4,5)P3 (competition)” value at GST-Grp1 is “only marginally increased the fluorescence at higher concentrations”.

In the case of PI(3)P, at SMQ-Grp1, the “change of fluorescence signal (competition)” value is reported as “little change”. As to PI(4,5)P2, in series [1], the “competition relative to PI(3,4,5)P3 competition” value was “approximately 90 fold”. Further, the “change of fluorescence signal (competition)” value on SMQ-Grp1 is “little change”.

B1: QSY 7-Grp1: Grp1, a PI(3,4,5)P3 binder, coupled to small molecular quencher QSY 7-SE (conjugate, UniProt O43739 1-400, looked up)
Cytohesin-3: T1 sequence (O43739 1-400)
modifications: QSY 7 quencher
Take B1: in series [2] (ratio 2:1 (QSY 7-Grp1:BODIPY®-FL-PI(3,4,5)P3)), the “quenching of fluorescence intensity of BODIPY®-FL PI(3,4,5)P3” value is “up to 70%”.

B2: Dabcyl-Grp1 conjugate: Grp1, a PI(3,4,5)P3 binder, coupled to small molecular quencher Dabcyl-SE (conjugate, UniProt O43739 1-400, looked up)
Cytohesin-3: T1 sequence (O43739 1-400)
modifications: Dabcyl quencher
With B2, the “quenching of fluorescence of BODIPY®-FL-PI(3,4,5)P3” value in series [2] (SMQ-Grp1 100 nM, BODIPY®-FL-PI(3,4,5)P3 50 nM) is approximately 70%.
